The assay concerns DNA TopI. The assay is described as follows: Western blot of DNA TopI expression in GC cells. The class given is cell-based, human. The conditions noted are these: SNU-1, HGC27 and NCI-N87; 48 h; gimatecan at 100 nM or more; irinotecan even at high concentrations. As for the experimental part:
SNU-1, HGC27 and NCI-N87 cells were starved in serum-free medium overnight, exposed to inhibitors for 48 h and harvested at 70–80% confluence. Total protein was extracted from cells or xenograft tissues on ice, using RIPA Lysis Buffer (Beyotime, Shanghai, China) supplemented with complete protease inhibitor and phosphatase inhibitor cocktail (Roche, Basel, Switzerland). Protein concentration was measured using a BCA Protein Assay Kit (Beyotime, Shanghai, China), and 50 μg protein from each sample was separated by 10% SDS-PAGE. After transfer to nitrocellulose membranes (GE Healthcare, Piscataway, NJ), samples were incubated with corresponding primary antibodies diluted in 5% BSA at 4 °C overnight and then with secondary antibodies at room temperature for 1 h. Proteins were visualized with a chemiluminescent detection system (GE Healthcare), using ECL plus Western blot reagents (GE Healthcare). Western-blotting bands were quantified and normalized by ImageJ software.
Cells were starved in serum-free medium overnight, exposed to gimatecan or irinotecan for 48 h and harvested at 70–80% confluence. Total protein of SNU-1 and NCI-N87 was extracted and the expression of TopI, pAKT, pMEK, pERK, p-p38 MAPK and pJNK2 were assessed by western-blotting followed by quantification and normalization by ImageJ. All data are mean ± SD of three independent experiments. Compared with controls, *p < 0.05

SMILES strings stand for the structures. Where a name gives a salt, the structure may show the parent alone.

As for `CC[C@@]1(O)C(=O)OCc2c1cc1n(c2=O)Cc2c-1nc1ccccc1c2/C=N/OC(C)(C)C` [Gimatecan, 7-t-butoxyiminomethylcamptothecin], the “expression of DNA TopI” value was “significantly inhibited”.
The entry for `CCc1c2c(nc3ccc(OC(=O)N4CCC(N5CCCCC5)CC4)cc13)-c1cc3c(c(=O)n1C2)COC(=O)[C@]3(O)CC` [Irinotecan, irinotecan hydrochloride] is “little effect”.

Values taken from publication PMC5729429, “Gimatecan exerts potent antitumor activity against gastric cancer in vitro and in vivo via AKT and MAPK signaling pathways” (Journal of Translational Medicine, 2017).
